Experimental data: PMC11094307, “Marine-derived EGFR inhibitors: novel compounds targeting breast cancer growth and drug resistance” (Frontiers in Pharmacology, 2024)

Tests used:
HER4 = HER4 (Homo sapiens, UniProt Q15303); test: Kinase profiling; assay type: biochemical
Experimental: (§1) The experiments were conducted in accordance with the manufacturer’s guidelines (Promega). The procedure began with a kinase reaction, where 5 μL of 1× kinase buffer was utilized, and the mixture was incubated at room temperature for 60 min. This step was followed by the addition of 5 μL of ADP-Glo™ reagent to terminate the kinase reaction and to deplete any remaining ATP, with a subsequent incubation period of 40 min at room temperature. Next, 10 μL of kinase detection reagent was added to convert ADP back into ATP, and luciferase along with luciferin was introduced to facilitate ATP detection. This mixture was then incubated at room temperature for an additional 30 min. Detection was carried out using a BioTek Synergy4 instrument, and data analysis, including curve fitting and presentation, was performed using GraphPad Prism version 5.0. […]; [Song et al., 2017]; [Abou-Zied et al., 2019]).

FGFR2 = FGFR2 (Homo sapiens, UniProt P21802); test: Kinase profiling; assay type: biochemical; conditions: one of the other seven tyrosine kinases
FGFR2, sequence (P21802 22-821): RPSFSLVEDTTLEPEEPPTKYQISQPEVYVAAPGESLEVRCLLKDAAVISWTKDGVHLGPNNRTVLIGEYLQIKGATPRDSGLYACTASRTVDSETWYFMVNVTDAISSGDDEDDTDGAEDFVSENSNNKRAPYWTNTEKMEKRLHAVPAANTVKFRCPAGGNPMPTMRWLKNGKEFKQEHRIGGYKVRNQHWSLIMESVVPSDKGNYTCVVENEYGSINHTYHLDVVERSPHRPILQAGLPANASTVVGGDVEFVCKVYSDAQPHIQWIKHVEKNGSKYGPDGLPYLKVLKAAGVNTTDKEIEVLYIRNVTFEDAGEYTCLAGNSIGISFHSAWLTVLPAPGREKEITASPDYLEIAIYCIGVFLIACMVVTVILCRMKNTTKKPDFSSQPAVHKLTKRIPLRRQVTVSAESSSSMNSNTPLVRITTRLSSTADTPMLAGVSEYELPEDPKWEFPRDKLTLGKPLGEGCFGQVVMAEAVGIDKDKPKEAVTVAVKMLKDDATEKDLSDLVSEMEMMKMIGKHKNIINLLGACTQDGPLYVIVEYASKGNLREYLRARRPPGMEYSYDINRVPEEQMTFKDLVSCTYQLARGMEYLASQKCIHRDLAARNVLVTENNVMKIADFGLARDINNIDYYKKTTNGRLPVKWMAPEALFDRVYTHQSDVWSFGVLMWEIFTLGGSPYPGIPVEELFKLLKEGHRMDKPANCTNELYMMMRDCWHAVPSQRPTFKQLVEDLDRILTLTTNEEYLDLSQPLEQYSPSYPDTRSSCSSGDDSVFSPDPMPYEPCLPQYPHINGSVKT
Experimental: as §1

HER4, sequence (Q15303 26-1308): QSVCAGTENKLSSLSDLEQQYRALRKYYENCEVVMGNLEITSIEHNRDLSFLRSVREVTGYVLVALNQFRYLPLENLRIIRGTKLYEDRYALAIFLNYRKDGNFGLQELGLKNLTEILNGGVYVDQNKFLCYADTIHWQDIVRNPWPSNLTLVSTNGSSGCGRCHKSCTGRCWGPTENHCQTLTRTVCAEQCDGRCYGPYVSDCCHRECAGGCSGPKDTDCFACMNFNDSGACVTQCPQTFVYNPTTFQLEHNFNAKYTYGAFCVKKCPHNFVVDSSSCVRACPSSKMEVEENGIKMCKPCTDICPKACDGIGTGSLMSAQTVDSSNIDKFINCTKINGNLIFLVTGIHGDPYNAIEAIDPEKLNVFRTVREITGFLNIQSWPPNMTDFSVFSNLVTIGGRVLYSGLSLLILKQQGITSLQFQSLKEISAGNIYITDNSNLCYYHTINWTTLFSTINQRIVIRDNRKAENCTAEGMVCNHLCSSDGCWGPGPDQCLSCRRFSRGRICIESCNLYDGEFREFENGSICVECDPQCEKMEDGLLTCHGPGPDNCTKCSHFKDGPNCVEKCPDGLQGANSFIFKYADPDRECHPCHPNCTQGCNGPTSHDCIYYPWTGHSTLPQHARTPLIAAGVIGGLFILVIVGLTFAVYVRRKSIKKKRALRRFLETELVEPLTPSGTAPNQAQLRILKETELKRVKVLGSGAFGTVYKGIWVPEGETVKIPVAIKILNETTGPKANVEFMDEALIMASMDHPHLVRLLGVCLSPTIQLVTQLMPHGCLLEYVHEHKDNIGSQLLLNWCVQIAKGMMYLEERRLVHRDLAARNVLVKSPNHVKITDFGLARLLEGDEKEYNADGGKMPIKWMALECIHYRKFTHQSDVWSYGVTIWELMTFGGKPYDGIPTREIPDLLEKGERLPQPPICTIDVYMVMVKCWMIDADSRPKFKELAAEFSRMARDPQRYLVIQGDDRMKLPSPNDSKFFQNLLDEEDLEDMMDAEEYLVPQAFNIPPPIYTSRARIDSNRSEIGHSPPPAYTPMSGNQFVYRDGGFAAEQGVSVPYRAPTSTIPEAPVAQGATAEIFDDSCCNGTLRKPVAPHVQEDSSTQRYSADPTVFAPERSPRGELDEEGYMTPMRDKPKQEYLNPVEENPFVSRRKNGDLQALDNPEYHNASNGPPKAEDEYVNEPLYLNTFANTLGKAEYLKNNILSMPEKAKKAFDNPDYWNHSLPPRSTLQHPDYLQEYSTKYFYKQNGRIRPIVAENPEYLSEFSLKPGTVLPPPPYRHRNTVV

COC(=O)C/C(C)=C/C(=O)O[C@@H]1C[C@@H](C)[C@H]2[C@@H](C=C[C@H](CC(C)C)[C@]2(C)C(=O)/C=C\O)[C@@H]1O [Tandyukisin]
IC50 (HER4): 31.1 ± 0.1 nM
IC50 (FGFR2): > 100000 nM
